Reference: patent publication US11912755B2, “Endostatin fragments and variants for use in treating fibrosis” (iBio, Inc., priority 2015, dated 2024)
“Also recorded” adds a separate entry of the source. Ends that are not written are not given here.

How the values were obtained:
human skin explants = assay: Ex vivo human skin assay, dermal thickness; assay type: cell-based
Protocol: Ex vivo human skin assays. Human abdominal skin was obtained from corrective plastic surgery. As previously described (Yasuoka et al., The Open Rheumatol J 2008; 2:17-22), subcutaneous fat tissue was removed uniformly and skin tissue was cut into 1.5 cm×1.5 cm sections. The following were injected intradermally in a total volume of 100 μl 1×PBS: rE alone (1-10 μg/ml), endostatin peptides alone (10 μg/ml), rE or endostatin peptides (1-20 μg/ml) in combination with TGF-β (10 ng/ml), and TGF-β alone (10 ng/ml). In some experiments, human skin was first injected with TGF-β for 48 h followed by recombinant endostatin (rE) administration in the same injection site as TGF-β. Explants containing complete epidermal and dermal layers were cultured in an air liquid interface with the epidermal and keratin layers side up and exposed to air. The culture medium was replaced every other day. After 1 or 2 weeks, skin tissue corresponding to an area with 8-mm diameter centered around the injection site was harvested using disposable 8-mm ACUPUNCH® (Acuderm, Inc., Lauderdale, FL). Skin tissue was fixed in 10% formalin prior to embedding in paraffin.
(§1) Measurement of Skin Dermal Thickness. Six μm sections of paraffin-embedded human and mouse skin tissues were stained with hematoxylin and eosin (H&E). In some experiments, sections were stained with Masson trichrome which identifies collagens. Images were taken on a Nikon Eclipse 800 microscope. The thickness of the dermis was measured in 6 random fields of each section using the image/J® software. Data are shown in arbitrary units.

[1] = tested on: TGF-β-induced dermal fibrosis in mouse skin; assay: In vivo TGF-β-induced dermal fibrosis in mouse skin
Protocol: In Vivo Mouse Experiments. CB57BL6/J male mice were purchased from The Jackson Laboratory (Bar Harbor, ME). Human rE (10 μg/ml) or Endostatin peptides (10 μg/ml) in combination with TGF-β (10 ng/ml), or TGF-β alone were injected intradermally on the back of mice in a total volume of 100 μl 1×PBS. Mice were injected in two different skin sites and sacrificed one week post-injection. Skin surrounding the injection site was harvested and fixed in 10% formalin prior to embedding in paraffin.
as §1
E4, a peptide representing the carboxy terminus of human endostatin, can attenuate fibrosis triggered by multiple fibrogenic factors. The anti-fibrotic effects of E4 can be detected whether administered concomitantly with or following the fibrogenic trigger. The efficacy of E4 was confirmed in […] pre-clinical models of fibrosis: a) bleomycin-induced dermal fibrosis in vivo in mouse skin, b) TGF-β induced dermal fibrosis in mouse skin, and c) bleomycin-induced pulmonary fibrosis. E4 peptide or a control peptide (E1; representing the amino terminal region of endostatin) were administered at the same time as TGF-β or bleomycin or 3-4 days following TGF-β or bleomycin. Mice were sacrificed one and two weeks after TGF-β-initiation of dermal fibrosis, and two and three weeks after bleomycin-induced pulmonary fibrosis. Two different modes of administration of the E4 peptide were also tested. It was confirmed that intraperitoneal and intratracheal administration was effective. The amount of E4 that was administered was 10 μg/ml in a total volume of 100 μl for skin and IP injections and 50 μl for IT administration.
For these studies, fibrosis was assessed by measurement of dermal thickness on H&E skin sections (skin), assessment of collagen levels by Masson Trichrome staining (skin and lung), and measurement of collagen levels by Sircol assay (lung). Furthermore, to confirm the mechanism by which E4 exerts its anti-fibrotic effects, the production of extra-cellular matrix (ECM) components, the levels of enzymes that promote matrix stabilization and thus accumulation and levels of those that degrade ECM components, and levels of transcription factors downstream of the pro-fibrotic triggers were evaluated. Results were assessed using the unpaired t test and the 3-way ANOVA (for the ID1 data).

[2] = tested on: bleomycin induced dermal fibrosis; assay: Bleomycin-induced dermal fibrosis in mouse skin; assay type: in vivo; conditions: single administration of E4 10 μg/ml on first day, daily bleomycin; skin harvested after 10 days
Protocol: FIGS. 8A-8B. The effect of endostatin E-4 on bleomycin induced dermal fibrosis in vivo. FIG. 8A: Mice were injected subcutaneously with 1×PBS as vehicle (V) or Bleomycin (Bleo; 20 μg/mouse) daily. E-4 (10 μg/ml) was mixed with bleomycin on the first day, and daily bleomycin administration was continued without subsequent injections of E4 (Bleo+E-4). Skin was harvested after 10 days. Sections were stained with H&E. Magnification, 100×. Data represent three independent experiments. Mann-Whitney U test was used for statistical analysis. * P<0.001, **P<0.00001.
E4, a peptide representing the carboxy terminus of human endostatin, can attenuate fibrosis triggered by multiple fibrogenic factors. The anti-fibrotic effects of E4 can be detected whether administered concomitantly with or following the fibrogenic trigger. The efficacy of E4 was confirmed in […] pre-clinical models of fibrosis: a) bleomycin-induced dermal fibrosis in vivo in mouse skin, b) TGF-β induced dermal fibrosis in mouse skin, and c) bleomycin-induced pulmonary fibrosis. […]
For these studies, fibrosis was assessed by measurement of dermal thickness on H&E skin sections (skin), assessment of collagen levels by Masson Trichrome staining (skin and lung), and measurement of collagen levels by Sircol assay (lung). […] Results were assessed using the unpaired t test and the 3-way ANOVA (for the ID1 data).

Egr-1 = assay: Western blot of Egr-1 in primary human lung fibroblasts; assay type: cell-based; conditions: harvested after 24 hours
Protocol: FIG. 16. […] Reduction of Egr-1 levels parallels that of collagen, SMA, and fibronectin. Lane 1: vehicle (DMSO); Lane 2: E4; Lane 3: TGFβ, Lane 4 TGFβ followed by E4 after 60 minutes. The samples were harvested after 24 hours.
In addition, E4 increases levels of inhibitor of differentiation (ID)-1, a transcription factor that inhibits TGF-β effects (see FIG. 15). It was determined in a Western blot analysis that E4 reduces the levels of the master switch transcription factor, Egr-1 (see FIG. 16) in primary human lung fibroblasts, treated and harvested after 24 hours. The reduction of Egr-1 levels parallels a reduction in collagen, SMA and fibronectin. Egr-1 is known to mediate the effects of several fibrotic agents (including TGF-β and bleomycin).

CTGF = assay: Genes regulated by E4: CTGF; assay type: cell-based; conditions: primary human fibroblasts treated with bleomycin or TGF-β; RT-qPCR
Protocol: Several experiments have been performed to identify the mechanisms by which E4 exerts its anti-fibrotic activity. Real-time quantitative PCR (qPCR)-based arrays were performed on RNA extracted from primary human lung fibroblasts or mouse lung tissue stimulated with various fibrotic triggers in the absence and presence of E4 treatment in order to identify genes influenced by the endostatin peptide.
The arrays identified several genes that have been previously implicated in fibrosis to be influenced by E4 treatment. These genes included connective tissue growth factor (CTGF), insulin-like growth factor binding protein (IGFBP)-3, matrix metalloproteases (MMP)-1 and MMP-3, urokinase plasminogen activator (uPA), plasminogen activator inhibitor (PAI)-1, and hepatocyte growth factor (HGF) with levels either decreased or increased in the presence of E4 as shown in TABLE 5.

E4: SEQ ID NO: 21, amino acids 133-180 of human endostatin with a C-terminal amide (SYCETWRTEAPSATGQASSLLGGRLLGQSAASCHHAYIVLCIENSFMT-NH2; cysteine pairing not given here)
TGF-β-induced skin fibrosis, dose response (human skin explants; concentrations of 5-20 μg/ml with TGF-β): clearly ameliorated | dermal thickness, baseline effect (human skin explants; injected alone, no TGF-β, rE 1, 5, 10 μg/ml, peptides 10 μg/ml): tendency towards reduction | development of fibrosis as measured by dermal thickness (human skin explants; peptides 10 μg/ml with 10 ng/ml TGF-β, vs TGF-β alone): significantly abolished | TGF-β-induced dermal fibrosis (dermal thickness) ([1]; 10 μg/ml intradermal with TGF-β 10 ng/ml, one week): prevented | TGF-β induced dermal fibrosis, delayed treatment ([1]; TGF-β day 1, peptide IP at day 3, harvested day 7): significant decrease | bleomycin induced dermal fibrosis [2]: significant attenuation | Egr-1 levels (Egr-1): reduces | Egr-1 levels (Egr-1; listed as E-4): reducing levels | Effect of E4 peptide on CTGF (CTGF): reduces; also recorded: Decrease
